Experimental data as given in PubChem BioAssay (NCI).
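Results reflect a 48-hour exposure of cells in 96-well plates to compound at five concentrations. TGI marks complete inhibition of growth.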

Tests used:
Experiment in all cases: NCI anticancer screen, dose series, 48 h
SK-MEL-28 melanoma = system: SK-MEL-28 melanoma
ACHN renal = system: ACHN renal
SK-MEL-5 melanoma = system: SK-MEL-5 melanoma
NCI-H522 lung = system: NCI-H522 lung
KM12 colon = system: KM12 colon
SNB-19 CNS = system: SNB-19 CNS
NCI-H226 lung = system: NCI-H226 lung
CCRF-CEM leukemia = system: CCRF-CEM leukemia
SR leukemia = system: SR leukemia
HOP-92 NSCLC = system: HOP-92 NSCLC
BT-549 breast = system: BT-549 breast
MALME-3M melanoma = system: MALME-3M melanoma
HCT-116 colon = system: HCT-116 colon
HT29 colon = system: HT29 colon
OVCAR-4 ovarian = system: OVCAR-4 ovarian
M14 melanoma = system: M14 melanoma
786-0 renal = system: 786-0 renal
MDA-MB-435 = system: MDA-MB-435
NCI-H23 lung = system: NCI-H23 lung
OVCAR-5 ovarian = system: OVCAR-5 ovarian
U251 CNS = system: U251 CNS
SF-295 CNS = system: SF-295 CNS
TK-10 renal = system: TK-10 renal
SF-268 CNS = system: SF-268 CNS
HL-60(TB) leukemia = system: HL-60(TB) leukemia
HCC-2998 colon = system: HCC-2998 colon
SF-539 CNS = system: SF-539 CNS
SW-620 colon = system: SW-620 colon
NCI/ADR-RES ovarian = system: NCI/ADR-RES ovarian
MDA-N = system: MDA-N
EKVX NSCLC = system: EKVX NSCLC
T-47D breast = system: T-47D breast
COLO 205 colon = system: COLO 205 colon
A498 renal = system: A498 renal
MOLT-4 leukemia = system: MOLT-4 leukemia
HCT-15 colon = system: HCT-15 colon
CAKI-1 renal = system: CAKI-1 renal
HS 578T breast = system: HS 578T breast
K-562 leukemia = system: K-562 leukemia
A549 NSCLC = system: A549 NSCLC
SN12C renal = system: SN12C renal
DU-145 prostate = system: DU-145 prostate
MDA-MB-231 breast = system: MDA-MB-231 breast
IGROV1 ovarian = system: IGROV1 ovarian
UO-31 renal = system: UO-31 renal
LOX IMVI melanoma = system: LOX IMVI melanoma
UACC-62 melanoma = system: UACC-62 melanoma
RXF 393 renal = system: RXF 393 renal
MCF7 breast = system: MCF7 breast
NCI-H460 lung = system: NCI-H460 lung
UACC-257 melanoma = system: UACC-257 melanoma
SNB-75 CNS = system: SNB-75 CNS
PC-3 prostate = system: PC-3 prostate
OVCAR-8 ovarian = system: OVCAR-8 ovarian
SK-MEL-2 melanoma = system: SK-MEL-2 melanoma
OVCAR-3 ovarian = system: OVCAR-3 ovarian
SK-OV-3 ovarian = system: SK-OV-3 ovarian
HOP-62 NSCLC = system: HOP-62 NSCLC

CC(C)(C)c1ccc(-n2c3nc(=O)n(-c4ccccc4CO)c(=O)c-3cc3ccccc32)cc1
TGI (SK-MEL-28 melanoma): > 100 µM
TGI (ACHN renal): > 100 µM
TGI (SK-MEL-5 melanoma): > 100 µM
TGI (NCI-H522 lung): > 100 µM
TGI (KM12 colon): > 100 µM
TGI (SNB-19 CNS): > 100 µM
TGI (NCI-H226 lung): > 100 µM
TGI (CCRF-CEM leukemia): 66.3 µM
TGI (SR leukemia): 73 µM
TGI (HOP-92 NSCLC): 97.7 µM
TGI (BT-549 breast): > 100 µM
TGI (MALME-3M melanoma): > 100 µM
TGI (HCT-116 colon): > 100 µM
TGI (HT29 colon): 86.8 µM
TGI (OVCAR-4 ovarian): > 100 µM
TGI (M14 melanoma): > 100 µM
TGI (786-0 renal): > 100 µM
TGI (MDA-MB-435): 99.4 µM
TGI (NCI-H23 lung): > 100 µM
TGI (OVCAR-5 ovarian): > 100 µM
TGI (U251 CNS): > 100 µM
TGI (SF-295 CNS): > 100 µM
TGI (TK-10 renal): > 100 µM
TGI (SF-268 CNS): > 100 µM
TGI (HL-60(TB) leukemia): 56.1 µM
TGI (HCC-2998 colon): > 100 µM
TGI (SF-539 CNS): 88.1 µM
TGI (SW-620 colon): > 100 µM
TGI (NCI/ADR-RES ovarian): > 100 µM
TGI (MDA-N): 62.9 µM
TGI (EKVX NSCLC): > 100 µM
TGI (T-47D breast): > 100 µM
TGI (COLO 205 colon): > 100 µM
TGI (A498 renal): > 100 µM
TGI (MOLT-4 leukemia): 57.2 µM
TGI (HCT-15 colon): > 100 µM
TGI (CAKI-1 renal): > 100 µM
TGI (HS 578T breast): > 100 µM
TGI (K-562 leukemia): > 100 µM
TGI (A549 NSCLC): > 100 µM
TGI (SN12C renal): > 100 µM
TGI (DU-145 prostate): > 100 µM
TGI (MDA-MB-231 breast): > 100 µM
TGI (IGROV1 ovarian): > 100 µM
TGI (UO-31 renal): > 100 µM
TGI (LOX IMVI melanoma): 37.9 µM
TGI (UACC-62 melanoma): > 100 µM
TGI (RXF 393 renal): 55.2 µM
TGI (MCF7 breast): > 100 µM
TGI (NCI-H460 lung): > 100 µM
TGI (UACC-257 melanoma): > 100 µM
TGI (SNB-75 CNS): > 100 µM
TGI (PC-3 prostate): > 100 µM
TGI (OVCAR-8 ovarian): > 100 µM

O=c1oc2cc(N=Cc3ccc4c(c3)OCO4)ccc2c2ccccc12
TGI (SK-MEL-28 melanoma): > 100 µM
TGI (ACHN renal): > 100 µM
TGI (SK-MEL-5 melanoma): > 100 µM
TGI (NCI-H522 lung): > 100 µM
TGI (SK-MEL-2 melanoma): > 100 µM
TGI (KM12 colon): > 100 µM
TGI (SNB-19 CNS): > 100 µM
TGI (NCI-H226 lung): > 100 µM
TGI (CCRF-CEM leukemia): > 100 µM
TGI (SR leukemia): > 100 µM
TGI (HOP-92 NSCLC): > 100 µM
TGI (BT-549 breast): > 100 µM
TGI (MALME-3M melanoma): > 100 µM
TGI (HCT-116 colon): > 100 µM
TGI (HT29 colon): > 100 µM
TGI (OVCAR-4 ovarian): > 100 µM
TGI (M14 melanoma): > 100 µM
TGI (786-0 renal): > 100 µM
TGI (MDA-MB-435): > 100 µM
TGI (NCI-H23 lung): > 100 µM
TGI (OVCAR-5 ovarian): > 100 µM
TGI (U251 CNS): > 100 µM
TGI (SF-295 CNS): > 100 µM
TGI (TK-10 renal): > 100 µM
TGI (SF-268 CNS): > 100 µM
TGI (HL-60(TB) leukemia): > 100 µM
TGI (SF-539 CNS): > 100 µM
TGI (SW-620 colon): > 100 µM
TGI (NCI/ADR-RES ovarian): > 100 µM
TGI (MDA-N): > 100 µM
TGI (EKVX NSCLC): 50.6 µM
TGI (T-47D breast): > 100 µM
TGI (COLO 205 colon): > 100 µM
TGI (A498 renal): > 100 µM
TGI (OVCAR-3 ovarian): > 100 µM
TGI (MOLT-4 leukemia): > 100 µM
TGI (HCT-15 colon): > 100 µM
TGI (CAKI-1 renal): > 100 µM
TGI (SK-OV-3 ovarian): > 100 µM
TGI (HS 578T breast): > 100 µM
TGI (HOP-62 NSCLC): > 100 µM
TGI (K-562 leukemia): > 100 µM
TGI (A549 NSCLC): > 100 µM
TGI (SN12C renal): > 100 µM
TGI (DU-145 prostate): > 100 µM
TGI (MDA-MB-231 breast): > 100 µM
TGI (IGROV1 ovarian): > 100 µM
TGI (UO-31 renal): > 100 µM
TGI (LOX IMVI melanoma): > 100 µM
TGI (UACC-62 melanoma): > 100 µM
TGI (RXF 393 renal): 67.2 µM
TGI (MCF7 breast): > 100 µM
TGI (NCI-H460 lung): > 100 µM
TGI (UACC-257 melanoma): > 100 µM
TGI (SNB-75 CNS): 39.7 µM
TGI (PC-3 prostate): > 100 µM
TGI (OVCAR-8 ovarian): > 100 µM
